Data set [1] deals with herpes simplex type 1 virus (HSV-1). To be noted: literature; cited from earlier work.
Data set [2] has as its system herpes simplex type 2 virus (HSV-2). To be noted: literature; cited from earlier work.
The test system of data set [3] is human immunodeficiency virus (HIV). Particulars: literature; cited from earlier work.
For data set [4], the system named is human hepatitis B virus (HBV). To be noted: literature; cited from earlier work.
For data set [5], the system named is Hepatitis B virus (HBV). Kind of data set: HBV growth inhibitory activity of mouse serum after oral administration (HB611 cells). Particulars: serum 5% (V/V) in HB611 cell medium. The class given is cell-based. Here is the method: HBV growth inhibitory activity of mouse serum after oral administration
Groups of mice each consisting of three mice were administered orally with a test compound at a single dose of 1 g/kg or 0.3 g/kg. Blood was collected 30 minutes after the administration, and serum was prepared. HB611 cells (2×10^4, recombinant human hepatocellular carcinoma cells producing HBV) were cultured in Dulbecco ME medium containing 10% fetal bovine serum, streptomycin (100 μg/ml), penicillin (100 IU/ml), and Geneteicin (trade name, the antibiotic manufactured by Life Technologies, Co., Ltd., 0.2 mg/ml) at 37° C. The medium was changed with fresh medium on the second day and fifth day of the culture, and then the medium was changed with a medium containing a test serum at a final concentration of 5% (V/V) after 8, 11, and 14 days of the culture. Total cellular DNAs were collected on the 17th day of the culture. Amounts of the HBV-DNAs in the cells were measured by the Southern blotting method, and rates of inhibition of cytoplasmic HBV-DNA synthesis were determined. As a reference, a similar test was carried out using PMEA.

In data set [6] the test system is Hepatitis B virus (HBV). Nature of the data set: HBV growth inhibition: inhibition of cytoplasmic HBV-DNA synthesis in HB611 cells (Southern blotting). The class given is cell-based. How it is done:
Inhibitory activity against the growth of Hepatitis B virus (HBV)
(§1) HBV growth inhibitory activities of the compounds of the present invention were measured by a conventional method (K. Ueda, et al., Virology, 169, pp.213-216, 1989). HB611 cells (2×10^4, recombinant human hepatocellular carcinoma cells producing HBV) were cultured in Dulbecco ME medium containing 10% fetal bovine serum, streptomycin (100 μg/ml), penicillin (100 IU/ml), and Geneteicin (trade name, the antibiotic manufactured by Life Technologies, Co., Ltd., 0.2 mg/ml) at 37° C. The medium was changed with fresh medium on the second day and fifth day of the culture, and then the medium was changed with a medium containing a test compound at a final concentration of […] after 8, 11, and 14 days of the culture. Total cellular DNAs were collected on the 17th day of the culture. Amounts of the HBV-DNAs in the cells were measured by the Southern blotting method, and concentrations achieving 50% inhibition of cytoplasmic HBV-DNA synthesis were determined. concentrations of compounds required for 50% extinction of HB611 cells were also determined.

A short description of data set [7]: Cytotoxicity: 50% extinction of HB611 cells. The class given is cell-based. To be noted: human, read-out: 50% cytotoxic concentration against HB611 cells. Here is the method:
as §1

[8] abbreviates: HB611 cells, compound in medium after 8, 11 and 14 days, DNA collected on 17th day, read-out: 50% inhibitory concentration against HBV-DNA synthesis.
[9] abbreviates: mouse serum 30 minutes after single oral dose of 0.3 g/kg.

The structures appear in SMILES notation. Where two headings read alike, the source gives them in different places.

`Nc1nc(N)c2ncn(CCOCP(=O)(O)O)c2n1` [PMDAP, 9-(2-phosphonylmethoxy)ethyl-2,6-diaminopurine]: in data set [1], the “reported as being effective against HSV-1” value is on record as “effective”. Further, the “reported as being effective against HSV-2” value in data set [2] is reported as “effective”. Also, the “reported as being effective against HIV” value in data set [3] is reported as “effective”. Further, in data set [4], the “reported as being effective against HBV” value is on record as “effective”.
On to `Nc1ncnc2c1ncn2CCOCP(=O)(O)O` [PMEA, 9-(2-phosphonylmethoxy) ethyladenine], for which the “Inhibitory rate against HBV-DNA synthesis” value (“Inhibitory rate” for short) in the data set with Hepatitis B virus (HBV) [5] (mouse serum 30 minutes after single oral dose of 1.0 g/kg) was 35.5%. The “reported as being effective against HSV-1” value in data set [1] was “effective”. Besides, the “reported as being effective against HSV-2” value in data set [2] was “effective”. For the same molecule, the “reported as being effective against HIV” value in data set [3] is given as “effective”. Further, the “reported as being effective against HBV” value in data set [4] is “effective”.
In the case of `Nc1nc(Sc2ccccc2)c2ncn(CCOCP(=O)(OCC(F)(F)F)OCC(F)(F)F)c2n1` [Compound No. 1, 2-amino-9-[2-[bis(2,2,2-trifluoroethyl)-phosphonylmethoxy]ethyl]-6-phenylthiopurine], the IC50 in the data set on Hepatitis B virus (HBV) [6] (setting [8]) stood at 0.01 µM. For the same molecule, in data set [7], the CC50 is over 1000 µM. In addition, the “Inhibitory rate” value with Hepatitis B virus (HBV) [5] (setting [9]) was 60.7%.
`COc1ccccc1Sc1nc(N)nc2c1ncn2CCOCP(=O)(OCC(F)(F)F)OCC(F)(F)F` [Compound No. 2, 2-amino-9-[2-[bis(2,2,2-trifluoroethyl)-phosphonylmethoxy]ethyl]-6-o-methoxyphenylthiopurine]: in the data set on Hepatitis B virus (HBV) [6] (setting [8]), the IC50 was 0.08 µM. The CC50 in data set [7] is over 1000 µM.
Turning to `COc1cccc(Sc2nc(N)nc3c2ncn3CCOCP(=O)(OCC(F)(F)F)OCC(F)(F)F)c1` [Compound No. 3, 2-amino-9-[2-[bis(2,2,2-trifluoroethyl)-phosphonylmethoxy]ethyl]-6-m-methoxyphenylthiopurine], the IC50 with Hepatitis B virus (HBV) [6] (setting [8]) came out at 0.04 µM. For the same molecule, in data set [7], the CC50 is over 1000 µM.
In the case of `COc1ccc(Sc2nc(N)nc3c2ncn3CCOCP(=O)(OCC(F)(F)F)OCC(F)(F)F)cc1` [Compound No. 4, 2-amino-9-[2-[bis(2,2,2-trifluoroethyl)-phosphonylmethoxy]ethyl]-6-p-methoxyphenylthiopurine], the IC50 with Hepatitis B virus (HBV) [6] (setting [8]) is 0.05 µM. For the same molecule, the CC50 in data set [7] is over 1000 µM. The “Inhibitory rate” value in the data set on Hepatitis B virus (HBV) [5] (setting [9]) amounted to 95.2%.
On to `CC(C)(C)C(=O)OCOP(=O)(COCCn1cnc2c(N)ncnc21)OCOC(=O)C(C)(C)C` [Reference 1, dipivaloyloxymethyl ester of PMEA], for which, in the data set on Hepatitis B virus (HBV) [6] (HB611, read-out: 50% inhibitory concentration against HBV-DNA synthesis), the IC50 was 18.8 µM. Besides, the CC50 in data set [7] came out at 11 µM.
In the case of `Cc1ccc(Sc2nc(N)nc3c2ncn3CCOCP(=O)(OCC(F)(F)F)OCC(F)(F)F)cc1` [Reference 2, 9-[2-[bis(2,2,2-trifluoroethyl)phosphonylmethoxy]ethyl]-2-amino-6-p-toluylthiopurine], in the data set on Hepatitis B virus (HBV) [6] (setting [8]), the IC50 came to 0.06 µM. The CC50 in data set [7] turned out to be 108 µM.

(Values after patent US5840716A, “Phosphonate nucleotide compounds” (priority 1996, dated 1998).)
